# Reference: patent US7956070B2, “Piperidines as chemokine modulators (CCR)” (AstraZeneca AB, priority 2004, dated 2011)
# System: not listed separately
# Experiment: pKa measurement (Sirius GLpKa)
# Assay type: physicochemical
# Settings: ionic strength adjusted (0.10 M KCl) water; Method B: potentiometric method; read-out: pKa (measured using Method B)
# Protocol: The pKa of a compound of formula (I) is measured using one of the following methodologies.
# The apparatus used consists of a Sirius GLpKa instrument with DPAS (Dip Probe Absorption Spectroscopy) attachment. Key elements of the apparatus are a Sirius pH electrode, stirrer, titrant dispensing tubes, a multi-tipped dispenser, motor driven dispensing syringes, fibre optic UV probe and diode array detector. In addition, solutions in PTFE containers of ionic strength adjusted (0.10 M KCl) distilled water, nominally 0.50 M HCl, nominally 0.50 M KOH and 80% v/v methanol:water are also housed within the instrument. The titration solutions are constantly purged with oxygen free nitrogen. The reservoir for the potassium hydroxide solution is further protected from atmospheric contamination by a soda-lime guard-tube. Samples are placed in titration vessels which in turn are placed in a movable autosampler tray (maximum capacity 48 samples). The electrode, stirrer, dispensing tubing/tips and DPAS probe are housed on a movable, automated z-tower unit, which, controlled by software, positions itself in the appropriate titration vessel when titrating. The Sirius GLpKa instrument is directly connected to a dedicated PC supporting software for assay setup and subsequent data analysis. Assays are set up using the GlpKaControl software and results are analysed using the pKaLOGP and pKaUV software on the PC. The software also allows determination of multiple pKas using complex curve fitting analyses.
# Method B: Potentiometric Method
# Two types of potentiometric titrations may be performed in order to determine a compound's pKa/pKas; a purely aqueous titration (recommended for fairly water soluble compounds) and a cosolvent titration, where variable amounts of methanol are added to the sample in addition to ionic strength adjusted water (recommended for compounds which are not soluble in water). For the latter, a value for the compound's pKa in pure ionic strength adjusted water can be estimated by the Yasuda-Shedlovsky procedure. This involves measuring the apparent pKa of the compound at three known weight percentages of methanol:water (transposed into reciprocals of the dielectric constants of the medium, 1/εr) and then extrapolating to 0 wt % methanol (1/εr=[…]).
# The GLpKa instrument unit also houses two aqueous wash containers (containing distilled water), a waste beaker (to dispense extraneous solutions into) and a container holding pH 7.00 buffer solution for the electrode to be immersed in during periods between titrations. Each time a set of titrations is carried out, these solutions are replaced. Position 1 in the autosampler contains a titration vessel containing pH 7.00 buffer solution (changed for each titration set). For each titration set to be run, position 2 houses a titration vessel into which ionic strength adjusted water is dispensed (typically 15.00 mL). This in turn is adjusted to pH 1.80 with aqueous HCl and then titrated to pH 12.20 by gradual addition of aqueous KOH. This is referred to as a blank titration and is employed by the pKaLogP software in order to calibrate the pH electrode and to standardise the HCl solution, using the so-called four-plus parameter procedure. Periodically, (typically every 3 months, or when the titration solutions run low) the titration solutions are replaced and the KOH solution standardised against potassium hydrogen phthalate using a standardisation procedure within the GLpKaControl software. Between 1-2 mg of each sample must be accurately weighed out. Samples are placed in provided glass titration vessels. The weight of compound must be entered into the GLpKaControl software. […]
row,pKa,SMILES
1,4.7,"O=C(NC[C@@H](O)CN1CCC(Oc2ccc(Cl)c(Cl)c2)CC1)c1sc(=O)[nH]c1C(F)(F)F [Example 4, N-{(2R)-3-[4-(3,4-Dichlorophenoxy)piperidin-1-yl]-2-hydroxypropyl}-2,3-dihydro-2-oxo-4-(trifluoromethyl)-5-thiazolecarboxamide]"
2,5.9,"O=C(NC[C@@H](O)CN1CCC(Oc2ccc(Cl)c(Cl)c2)CC1)c1ccc(=O)[nH]c1C(F)(F)F [Example 1, N-{(2R)-3-[4-(3,4-Dichlorophenoxy)piperidin-1-yl]-2-hydroxypropyl}-6-oxo-2-(trifluoromethyl)-1,6-dihydropyridine-3-carboxamide]"
3,6.6,"O=C(NC[C@@H](O)CN1CCC(Oc2ccc(Cl)c(Cl)c2)CC1)c1sc(=O)[nH]c1CC(F)(F)F [Example 33, N-{(2R)-3-[4-(3,4-Dichlorophenoxy)piperidin-1-yl]-2-hydroxypropyl}-2-oxo-4-(2,2,2-trifluoroethyl)-2,3-dihydro-1,3-thiazole-5-carboxamide]"
4,4,"O=C(NC[C@@H](O)CN1CCC(Oc2ccc(Cl)c(Cl)c2)CC1)c1nn[nH]c1C(F)(F)F [Example 38, N-{(2R)-3-[4-(3,4-Dichlorophenoxy)piperidin-1-yl]-2-hydroxypropyl}-5-(trifluoromethyl)-1H-1,2,3-triazole-4-carboxamide]"

# Further lines, the compound ahead of its results:
row,SMILES,pKa
1,"Cc1c(Cl)ccc(OC2CCN(C[C@H](O)CNC(=O)c3cc(C#N)c(=O)[nH]c3C(F)(F)F)CC2)c1Cl [Example 11, 5-Cyano-N-{(2R)-3-[4-(2,4-dichloro-3-methylphenoxy)piperidin-1-yl]-2-hydroxypropyl}-6-oxo-2-(trifluoromethyl)-1,6-dihydropyridine-3-carboxamide]",3
2,"N#Cc1cc(C(=O)NC[C@@H](O)CN2CCC(Oc3ccc(Cl)c(Cl)c3)CC2)c(-c2ccccc2)[nH]c1=O [Example 12, 5-Cyano-N-{(2R)-3-[4-(3,4-dichlorophenoxy)piperidin-1-yl]-2-hydroxypropyl}-6-oxo-2-phenyl-1,6-dihydropyridine-3-carboxamide]",3
3,"CS(=O)(=O)Nc1nc(C(F)(F)F)c(C(=O)NC[C@@H](O)CN2CCC(Oc3ccc(Cl)c(Cl)c3)CC2)s1 [Example 21, N-{(2R)-3-[4-(3,4-Dichlorophenoxy)piperidin-1-yl]-2-hydroxypropyl}-2-[(methylsulfonyl)amino]-4-(trifluoromethyl)-1,3-thiazole-5-carboxamide]",7.5
4,"CSc1[nH]nnc1C(=O)NC[C@@H](O)CN1CCC(Oc2ccc(Cl)c(Cl)c2)CC1 [Example 36, N-{(2R)-3-[4-(3,4-Dichlorophenoxy)piperidin-1-yl]-2-hydroxypropyl}-5-(methylthio)-1H-1,2,3-triazole-4-carboxamide]",5.5
5,"O=C(NC[C@@H](O)CN1CCC(Oc2ccc(Cl)c(Cl)c2)CC1)c1nn[nH]c1-c1ccc(F)cc1 [Example 26, N-{(2R)-3-[4-(3,4-Dichlorophenoxy)piperidin-1-yl]-2-hydroxypropyl}-5-(4-fluorophenyl)-1H-1,2,3-triazole-4-carboxamide]",6.1
6,"Cc1c(OC2CCN(C[C@H](O)CNC(=O)c3sc(=O)[nH]c3C(F)(F)F)CC2)ccc(C#N)c1Cl [Example 40, N-{(2R)-3-[4-(3-Chloro-4-cyano-2-methylphenoxy)piperidin-1-yl]-2-hydroxypropyl}-2-oxo-4-(trifluoromethyl)-2,3-dihydro-1,3-thiazole-5-carboxamide]",4.7
7,"O=C(NC[C@@H](O)CN1CCC(Oc2ccc(Cl)c(Cl)c2)CC1)c1nn[nH]c1SCC(F)(F)F [Example 19, N-{(2R)-3-[4-(3,4-Dichlorophenoxy)piperidin-1-yl]-2-hydroxypropyl}-5-[(2,2,2-trifluoroethyl)thio]-1H-1,2,3-triazole-4-carboxamide]",5.2

# Same assay, conditions: method not stated; read-out: measured pKa
row,pKa,SMILES
1,2.6,"Cc1c(OC2CCN(C[C@H](O)CNC(=O)COc3cccc(C(=O)O)c3)CC2)ccc(Cl)c1Cl [Example 46, 3-[2-({(2R)-3-[4-(3,4-Dichloro-2-methylphenoxy)piperidin-1-yl]-2-hydroxypropyl}amino)-2-oxoethoxy]benzoic acid]"

# Target: T1, human H1 receptor (Homo sapiens, UniProt P35367)
# T1 construct: purchased Euroscreen SA, Brussels, Belgium ES-390-M; host or cells: recombinant CHO-K1 cells (membranes)
# Experiment: Histamine H1 receptor binding, competition displacement of [3H]-pyrilamine
# Settings: 1 nM [3H]-pyrilamine, membranes from recombinant CHO-K1 cells expressing the human H1 receptor, 1 hour at room temperature; read-out: H1 pKi (converted)
# Protocol: Histamine H1 receptor binding activity of compounds of the invention was assessed by competition displacement of 1 nM [3H]-pyrilamine (Amersham, Bucks, Product code TRK 608, specific activity 30 Ci/mmol) to 2 μg membranes prepared from recombinant CHO-K1 cells expressing the human H1 receptor (Euroscreen SA, Brussels, Belgium, product code ES-390-M) in assay buffer (50 mM Tris pH 7.4 containing 2 mM MgCl2, 250 mM sucrose and 100 mM NaCl) for 1 hour at room temperature.
# The following compounds of the invention gave inhibition of [3H]pyrilimine binding: […]
# T1 sequence (P35367 whole entry): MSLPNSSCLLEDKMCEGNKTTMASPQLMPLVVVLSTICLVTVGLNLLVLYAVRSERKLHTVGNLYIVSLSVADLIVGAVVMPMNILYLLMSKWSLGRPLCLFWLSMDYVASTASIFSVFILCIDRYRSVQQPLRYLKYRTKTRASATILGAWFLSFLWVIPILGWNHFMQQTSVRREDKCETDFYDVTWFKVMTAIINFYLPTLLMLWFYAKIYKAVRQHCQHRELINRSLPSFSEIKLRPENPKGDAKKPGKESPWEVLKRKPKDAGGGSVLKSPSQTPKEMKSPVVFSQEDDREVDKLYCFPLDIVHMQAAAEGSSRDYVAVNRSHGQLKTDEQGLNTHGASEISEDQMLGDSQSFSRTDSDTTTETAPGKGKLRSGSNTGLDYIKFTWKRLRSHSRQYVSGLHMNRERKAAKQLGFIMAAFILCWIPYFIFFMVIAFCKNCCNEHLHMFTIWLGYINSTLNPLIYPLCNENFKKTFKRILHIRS
row,Ki [nM],SMILES
1,251,"N#Cc1ccc(OC2CCN(C[C@H](O)CNC(=O)c3sc(=O)[nH]c3C(F)(F)F)CC2)cc1Cl [Example 27, N-{(2R)-3-[4-(3-Chloro-4-cyanophenoxy)piperidin-1-yl]-2-hydroxypropyl}-2-oxo-4-(trifluoromethyl)-2,3-dihydro-1,3-thiazole-5-carboxamide]"
2,126,"N#Cc1cc(C(=O)NC[C@@H](O)CN2CCC(Oc3ccc(Cl)c(Cl)c3)CC2)c(C(F)(F)F)[nH]c1=O [Example 10, 5-Cyano-N-{(2R)-3-[4-(3,4-dichlorophenoxy)piperidin-1-yl]-2-hydroxypropyl}-6-oxo-2-(trifluoromethyl)-1,6-dihydropyridine-3-carboxamide]"
3,39.8,"O=C(NC[C@H](O)CN1CCC(Oc2ccc(Cl)c(Cl)c2)CC1)c1sc(=O)[nH]c1C(F)(F)F [Example 28, N-{(2S)-3-[4-(3,4-Dichlorophenoxy)piperidin-1-yl]-2-hydroxypropyl}-2-oxo-4-(trifluoromethyl)-2,3-dihydro-1,3-thiazole-5-carboxamide]"
4,200,"O=C(NC[C@@H](O)CN1CCC(Oc2ccc(Cl)c(Cl)c2)CC1)c1oc(=O)[nH]c1C(F)(F)F [Example 37, N-{(2R)-3-[4-(3,4-Dichlorophenoxy)piperidin-1-yl]-2-hydroxypropyl}-2-oxo-4-(trifluoromethyl)-2,3-dihydro-1,3-oxazole-5-carboxamide]"
5,126,"CN(C[C@@H](O)CN1CCC(Oc2ccc(Cl)c(Cl)c2)CC1)C(=O)c1sc(=O)[nH]c1C(F)(F)F [Example 5, N-{(2S)-3-[4-(3,4-Dichlorophenoxy)piperidin-1-yl]-2-hydroxypropyl}-N-methyl-2-oxo-4-(trifluoromethyl)-2,3-dihydro-1,3-thiazole-5-carboxamide]"

# Continued, compound first:
row,SMILES,Ki [nM]
1,"Cc1c(OC2CCN(C[C@H](O)CNC(=O)c3sc(=O)[nH]c3C(F)(F)F)CC2)ccc(Cl)c1Cl [Example 24, N-{(2R)-3-[4-(3,4-Dichloro-2-methylphenoxy)piperidin-1-yl]-2-hydroxypropyl}-2-oxo-4-(trifluoromethyl)-2,3-dihydro-1,3-thiazole-5-carboxamide]",20
2,"Cc1c(OC2CCN(C[C@H](O)CNC(=O)COc3cc(C(=O)O)ccc3Cl)CC2)ccc(Cl)c1Cl [Example 44, 4-Chloro-3-[2-({(2R)-3-[4-(3,4-dichloro-2-methylphenoxy)piperidin-1-yl]-2-hydroxypropyl}amino)-2-oxoethoxy]benzoic acid]",12.6
3,"Cc1c(OC2CCN(C[C@H](O)CNC(=O)c3ccc(Cl)c(OCC(=O)O)c3)CC2)ccc(Cl)c1Cl [Example 45, {2-Chloro-5-[({(2R)-3-[4-(3,4-dichloro-2-methylphenoxy)piperidin-1-yl]-2-hydroxypropyl}amino)carbonyl]phenoxy}acetic acid]",63.1
4,"Cn1c(C(=O)NC[C@@H](O)CN2CCC(Oc3ccc(Cl)c(Cl)c3)CC2)cc(=O)[nH]c1=O [Example 14, N-{(2R)-3-[4-(3,4-Dichlorophenoxy)piperidin-1-yl]-2-hydroxypropyl}-3-methyl-2,6-dioxo-1,2,3,6-tetrahydropyrimidine-4-carboxamide]",126
5,"CC(C)c1[nH]nnc1C(=O)NC[C@@H](O)CN1CCC(Oc2ccc(C#N)c(Cl)c2)CC1 [Example 31, N-{(2R)-3-[4-(3-Chloro-4-cyanophenoxy)piperidin-1-yl]-2-hydroxypropyl}-5-isopropyl-1H-1,2,3-triazole-4-carboxamide]",158
